Experimental data from patent US10918741B2, “PSMA-targeting imaging agents” (THE CLEVELAND CLINIC FOUNDATION, priority 2014, dated 2021).
Entries after “also recorded” stand apart in the source; their conditions may differ. Read-outs that look alike come from different tables or passages of the source. *1 amine or outer side, *2 acyl side, *3 side chain or, on linkers, in order; H or OH if unused. Where a SMILES comes first, the peptide text is derived from it. [ ]: non-standard residue; d: D form. γGlu = O=C(O)[C@H](CCC(=O)[*:2])N[*:1]; X1 = O=C(C1CCC(CN[*:1])CC1)[*:2]; CO = O=C([*:1])[*:2]; Ahx = NCCCCCC(=O)O

Assays:
PSMA [1] = target: T1, PSMA (Homo sapiens, UniProt Q04609); test: Competitive binding assay; design: endogenous in cells; host or cells: LNCaP (endogenous PSMA, from ATCC) or PC3-PIP (retrovirally transformed PSMA-positive PC3, from Dr. Michel Sadelain)
T1 sequence (Q04609 whole entry): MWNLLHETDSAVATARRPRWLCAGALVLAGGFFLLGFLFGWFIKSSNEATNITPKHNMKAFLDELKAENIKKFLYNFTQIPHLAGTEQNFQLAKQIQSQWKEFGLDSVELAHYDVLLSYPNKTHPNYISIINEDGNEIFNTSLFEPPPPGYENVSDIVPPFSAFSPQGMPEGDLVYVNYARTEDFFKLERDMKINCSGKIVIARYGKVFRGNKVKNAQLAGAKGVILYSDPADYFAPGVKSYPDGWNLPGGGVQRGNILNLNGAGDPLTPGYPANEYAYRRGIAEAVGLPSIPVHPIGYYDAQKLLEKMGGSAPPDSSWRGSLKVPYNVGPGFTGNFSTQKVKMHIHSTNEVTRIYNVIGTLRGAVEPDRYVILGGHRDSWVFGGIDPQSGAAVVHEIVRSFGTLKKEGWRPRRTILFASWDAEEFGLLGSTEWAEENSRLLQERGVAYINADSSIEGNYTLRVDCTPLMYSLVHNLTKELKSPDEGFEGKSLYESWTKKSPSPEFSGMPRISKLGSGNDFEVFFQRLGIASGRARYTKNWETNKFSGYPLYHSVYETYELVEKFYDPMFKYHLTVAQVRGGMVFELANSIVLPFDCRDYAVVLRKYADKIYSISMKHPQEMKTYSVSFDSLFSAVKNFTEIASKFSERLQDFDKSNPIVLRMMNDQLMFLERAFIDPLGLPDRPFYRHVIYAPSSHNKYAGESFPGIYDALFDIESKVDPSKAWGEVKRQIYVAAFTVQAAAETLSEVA
Procedure: The prostate cancer cell line LNCaP (PSMA-positive) was obtained from American Type Culture Collection (Manassas, Va.). Retrovirally transformed PSMA positive PC3-PIP cells and transfection controlled PC3-flu cells were obtained from Dr. […] (Laboratory of Gene Transfer and Gene Expression, Gene Transfer and Somatic Cell Engineering Facility, Memorial-Sloan Kettering Cancer Center, New York, N.Y.). Cells were grown at 37° C. and 5% CO2 under a humidified atmosphere. […] The mixture was centrifuged at 3,000 g for 5 min at 4° C., then washed three times with 500 μL of cold PBS. […] The concentration required to inhibit 50% of binding was determined (IC50) by Graph Pad Prism 3.0.

[2] = system: PC3-PIP (PSMA+) tumor xenographs; test: Biodistribution study of [Al^18F]5; format: in vivo, mice; conditions: for Biodistribution: Tumor (PC3PIP): preliminary
Procedure: (§1) Positron emission tomography and biodistribution study of [Al^18F]5: Male NSG mice at least 6 weeks old were subcutaneously implanted with two human PC3-PIP (PSMA+) tumor xenographs. When one of the tumors reached 0.5 mL in volume, imaging and biodistribution studies were conducted. For imaging, 0.3-0.4 mCi of [Al^18F]5 was injected via the tail vein. The mouse was anesthetized with isoflurane and imaged at 1 hour post injection on a clinical PET/CT scanner (Biograph mCT, Siemens Molecular Imaging, Hoffman Estates, Ill.) using super-resolution sampling and iterative deconvolution processing. For the biodistribution study without imaging, 50-150 μCi of [Al^18F]5 was injected in PC3-PIP tumor bearing mice which were sacrificed at one and two hours post injection for biodistribution measurements.

[3] = Biodistribution study of [Al^18F]5; format: in vivo, mice; conditions: male, NSG, mouse, total radioactivity
Procedure: as §1

PSMA [4] = target: T1, PSMA; conditions: cited from earlier work; for (per patient) lesion detection rate: 37 patients with prostate cancer; for non-PSMA related background in humans, in words / lesion detection in humans, in words: early human trials
[5] = published values, cited from earlier work; for Blood pool activity: 2 hours post injection; for liver background: at 2 hours
[6] = system: PC3-pip (PSMA-positive) and PC3-flu (PSMA-negative) tumors; test: Preoperative NIR imaging with the Maestro in vivo imaging system; design: species or system mice
Procedure: PC3-pip (PSMA-positive) and PC3-flu (PSMA-negative) cells were injected subcutaneously 1.0×10^6 PC3 cells with 200 µL of matrigel into each flank of 6 NOD SCID Gamma (NSG) mice. Chang et al., Cancer Res.; 59:3192-3198 (1999). After the tumors reached a size of ˜5 mm, the mice were anesthetized with isoflurane and were administered 2 or 10 nmol of PSMA-binding fluorescent conjugate via tail vein injection. Preoperative NIR imaging was performed using the Maestro in vivo imaging system (Cambridge Research and Instrumentation, Hopkinton, Mass.). The mice were imaged immediately and at 1-hour intervals after injection of the PSMA targeting fluorescent compound for up to 4 hours. The mice were killed once PSMA+ and PSMA− tumors could be visually differentiated by NIR imaging. The method used was CO2 asphyxiation followed by cervical dislocation.

[7] = system: PC3-pip (PSMA-positive) and PC3-flu (PSMA-negative) tumors; test: NIR fluorescence-guided robotic surgery (da Vinci Si); format: in vivo, mice
From the text: Mouse carcasses were operated on using a da Vinci Si Robot (Intuitive Surgical, Sunnyvale, Calif.). A portable dark box was used to minimize ambient light and to allow optimal fluorescence detection. Three robotic instruments (the novel endoscope to detect NIR fluorescence, a scissor, and a grasper) were inserted through robotic trocars positioned across the top cover of the dark box. The tumors were excised using the new robotic camera to detect the fluorescence of the PSMA-binding conjugate. All procedures were done by a single surgeon (R.S.), who had extensive experience in robotic surgery. Tumor specimens were sent for histopathological analysis to assess margin status.

[8] = blood, read-out: Biodistribution: Blood
[9] = liver, read-out: Biodistribution: Liver

NC(=O)[C@H](CCCCNC(=S)Nc1ccc(CC2CN(CC(=O)O)CCN(CC(=O)O)CCN2CC(=O)O)cc1)NC(=O)[C@H](Cc1ccc(O)cc1)NC(=O)[C@H](CCC(=O)O)NC(=O)[C@H](CCC(=O)O)NC(=O)[C@H](CCC(=O)O)NC(=O)CCCCCNC(=O)CC[C@H](NC(=O)N[C@@H](CCC(=O)O)C(=O)O)C(=O)O (single isomer, unassigned) [Compound 5, E′E-Ahx-EEEYK(Bn-NOTA)-NH2]
affinity for PSMA, comparison in words (PSMA [1]): same affinity for PSMA as compound 4

NC(=O)[C@H](CCCCNC(=S)Nc1ccc(CC2CN(CC(=O)O)CCN(CC(=O)O)CCN2CC(=O)O)cc1)NC(=O)[C@H](Cc1ccc(O)cc1)NC(=O)[C@H](CCC(=O)O)NC(=O)[C@H](CCC(=O)O)NC(=O)[C@H](CCC(=O)O)NC(=O)CCCCCNC(=O)CC[C@H](NC(=O)N[C@@H](CCC(=O)O)C(=O)O)C(=O)O (single isomer, unassigned) [[Al^18F]5]
Biodistribution: Blood ([2]; 1 hour): 0.18% ± 0.09% | Biodistribution: Bone ([2]; 1 hour): 0.39% ± 0.28% | Biodistribution: Heart ([2]; 1 hour): 0.14% ± 0.11% | Biodistribution: Kidney ([2]; 1 hour): 16.82% ± 5.60% | Biodistribution: Liver ([2]; 1 hour): 0.41% ± 0.10% | Biodistribution: Lung ([2]; 1 hour): 0.21% ± 0.05% | Biodistribution: Muscle ([2]; 1 hour): 0.19% ± 0.12% | Biodistribution: Small Intestine ([2]; 1 hour): 0.43% ± 0.51% | Biodistribution: Spleen ([2]; 1 hour): 0.29% ± 0.14% | Biodistribution: Stomach ([2]; 1 hour): 0.10% ± 0.03% | Biodistribution: Thyroid ([2]; 1 hour): 0.11% ± 0.02% | Biodistribution: Tumor (PC3PIP) ([2]; 1 hour, n = 4): 6.91% ± 1.44% | Biodistribution: Heart ([2]; 2 hour): 0.04% ± 0.01% | Biodistribution: Kidney ([2]; 2 hour): 5.96% ± 2.17% | Biodistribution: Lung ([2]; 2 hour): 0.07% ± 0.04% | Biodistribution: Small Intestine ([2]; 2 hour): 0.18% ± 0.02% | Biodistribution: Spleen ([2]; 2 hour): 0.10% ± 0.04% | Biodistribution: Stomach ([2]; 2 hour): 0.03% ± 0.02% | Biodistribution: Thyroid ([2]; 2 hour): 0.05% ± 0.00% | Tumor:blood ([2]; 2 hour): 115 | Tumor:bone ([2]; 2 hour): 46 | Tumor:liver ([2]; 2 hour): 27 | Tumor:muscle ([2]; 2 hour): 458 | Tumor:spleen ([2]; 2 hour): 46 | Biodistribution: Tumor (PC3PIP) ([2]; 2 hour, n = 6): 4.58% ± 0.55% | dissociation of ^18F-fluoride from the complex (from bone uptake) ([2]; mouse, in vivo): no significant dissociation of ^18F-fluoride from the complex | excretion in words ([2]; mouse, in vivo): very fast renal excretion | tissue uptake at 1 h [3, 8]: ~0.18 %ID/g | tissue uptake at 2 h [3, 8]: 0.04 %ID/g | tissue uptake at 2 h ([3]; bone, read-out: Biodistribution: Bone): 0.1 %ID/g | tissue uptake at 1 h [3, 9]: ~0.4 %ID/g | tissue uptake at 2 h [3, 9]: 0.17 %ID/g | tissue uptake at 2 h ([3]; muscle, read-out: Biodistribution: Muscle): 0.01 %ID/g | tissue uptake at 2 h ([3]; tumor (PC3-PIP), n = 6, preliminary, read-out: Biodistribution: Tumor (PC3PIP)): 4.6 %ID/g

O=C(O)CC[C@H](NC(=O)N[C@@H](CSC1CC(=O)N(CC2CCC(C(=O)NCCCCCC(=O)N[C@H](CCC(=O)O)C(=O)N[C@H](CCC(=O)O)C(=O)N[C@H](CCC(=O)O)C(=O)NCC(=O)O)CC2)C1=O)C(=O)O)C(=O)O (stereo partly shown) [Compound 1, ZJ-MCC-Ahx-dEdEdEG]
affinity for PSMA, comparison in words (PSMA [1]): affinity comparable to the parent urea ligand; also recorded: Neither compound came close to matching the affinity of RBI-1033 | IC50 (PSMA [1]; LNCaP or PC3-PIP cells, 12 nM [^3H] ligand, 1 hour at 37° C., 95% confidence intervals in parentheses): 2.2 nM

O=C(O)CC[C@H](NC(=O)N[C@@H](CSC1CC(=O)N(CC2CCC(C(=O)NCCCCCC(=O)N[C@@H](Cc3ccc(O)cc3)C(=O)N[C@@H](Cc3ccc(O)cc3)C(=O)N[C@@H](Cc3ccc(O)cc3)C(=O)NCC(=O)O)CC2)C1=O)C(=O)O)C(=O)O (stereo partly shown) [Compound 2, ZJ-MCC-Ahx-YYYG]
affinity for PSMA, comparison in words (PSMA [1]): affinity comparable to the parent urea ligand; also recorded: Neither compound came close to matching the affinity of RBI-1033

NC(=O)[C@H](CS)NC(=O)CNC(=O)CNC(=O)CNC(=O)[C@H](Cc1ccc(O)cc1)NC(=O)CNC(=O)[C@@H](CCC(=O)O)NC(=O)[C@@H](CCC(=O)O)NC(=O)[C@@H](CCC(=O)O)NC(=O)CCCCCNC(=O)C1CCC(CNC(=O)CC[C@H](NC(=O)N[C@@H](CCC(=O)O)C(=O)O)C(=O)O)CC1 (stereo partly drawn) [Compound 3, E′E-Amc-Ahx-dEdEdEGYGGGC-NH2] ({Glu-CO-γGlu}-[X1][Ahx][dE][dE][dE]GYGGGC-NH2)
affinity for PSMA, comparison in words (PSMA [1]): equivalent to compound 1

O=C([O-])CN(CCN(CC(=O)[O-])Cc1cc(CCC(=O)NCCCCCC(=O)NCCCC[C@H](NC(=O)N[C@@H](CCC(=O)O)C(=O)O)C(=O)O)ccc1[O-])Cc1cc(CCC(=O)O)ccc1[O-].[68Ga+3].[OH3+] [Glu-NH—CO—NHLys(Ahx)-[^68Ga(HBED-CC)]]
(per patient) lesion detection rate (PSMA [4]; at PSA <2.2 ng/ml): 60% | (per patient) lesion detection rate (PSMA [4]; at PSA >2.2 ng/ml): 100% | non-PSMA related background in humans, in words (PSMA [4]): significant uptake in salivary glands, lacrimal glands, and liver

O=C(O)CC[C@H](NC(=O)N[C@@H](CSCc1ccc([18F])cc1)C(=O)O)C(=O)O [^18F-DCFBC]
Blood pool activity [5]: 0.4 % ID/g | liver background [5]: 2.1 % ID/g | lesion detection in humans, in words (PSMA [4]): detected lymph node and bone metastases at 2 hr post injection | non-PSMA related background in humans, in words (PSMA [4]): elevated liver background and unexpected blood pool retention

O=C(O)CC[C@H](NC(=O)N[C@@H](CCCCNC(=O)c1ccc([18F])nc1)C(=O)O)C(=O)O [^18F-DCFPyL]
Blood pool activity [5]: 0.4 % ID/g | liver background [5]: 2.1 % ID/g

O=C(O)CC[C@H](NC(=O)N[C@@H](CCCCNCc1ccc([123I])cc1)C(=O)O)C(=O)O [^123I-MIP-1072]
Blood pool activity [5]: 0.21 % ID/g | liver background [5]: 2.17 % ID/g | lesion detection in humans, in words (PSMA [4]): detection of soft tissue and bone metastases, as well as tumors in the prostate bed | non-PSMA related background in humans, in words (PSMA [4]): significant uptake in salivary glands, lacrimal glands, and liver

O=C(O)CC[C@H](NC(=O)N[C@@H](CCCCNC(=O)Nc1ccc([123I])cc1)C(=O)O)C(=O)O [^123I-MIP-1095]
lesion detection in humans, in words (PSMA [4]): detection of soft tissue and bone metastases, as well as tumors in the prostate bed | non-PSMA related background in humans, in words (PSMA [4]): significant uptake in salivary glands, lacrimal glands, and liver

ZJ-MCC-dEdEdEGK(IRDye800cw)G
mice with proper targeting on presurgical NIR imaging ([6]; 10 nmol): Two of the 3 mice | preoperative NIR fluorescence imaging result in words ([6]; Maestro in vivo imaging system): strong fluorescence signal from the tracer in the right flank (PSMA positive tumor), bladder, and urethra | time to detect peak fluorescence from the PSMA-positive tumors ([6]; first 3 mice, Maestro imaging system): 120 min | signal intensity from the tumor ([6]; within 240 minutes): already partially decreased | mice with fluorescence detected from the PSMA positive tumors during robotic surgery ([7]; 10 nmol, 120 minutes after injection): 2 of 3 | intensity of fluorescence during robotic surgery ([7]; PSMA positive tumors): weak | fluorescence in the PSMA negative (control) tumors ([7]; mouse, in vivo): no tumor fluorescence was identified in any of the mice
